Measurements published in ChEMBL document CHEMBL1139699, “Solid-phase synthesis and antibacterial activity of hydroxycinnamic acid amides and analogues against methicillin-resistant Staphylococcus aureus and vancomycin-resistant S. aureus” (Bioorg Med Chem Lett, 2006).
≈ marks a conversion by molar mass, not a printed value. Calls of active or inactive are those of the source. The calls are words filed in the database; no cut-off is given here.

Columns and labels:
Staphylococcus aureus [1] = test: Antibacterial activity against methicillin-resistant Staphylococcus aureus 20635; assay type: functional
Staphylococcus aureus [2] = test: Antibacterial activity against methicillin-resistant Staphylococcus aureus 20653; assay type: functional
Staphylococcus aureus [3] = test: Antibacterial activity against vancomycin-resistant Staphylococcus aureus 20622; assay type: functional
Staphylococcus aureus [4] = test: Antibacterial activity against methicillin-resistant Staphylococcus aureus 20632; assay type: functional
Staphylococcus aureus [5] = test: Antibacterial activity against vancomycin-resistant Staphylococcus aureus 20624; assay type: functional
[6] = Cytotoxicity against human gingival cells; assay type: cell-based
Staphylococcus aureus [7] = test: Antibacterial activity against vancomycin-resistant Staphylococcus aureus 21083; assay type: functional
Staphylococcus aureus [8] = test: Antibacterial activity against methicillin-resistant Staphylococcus aureus 20633; assay type: functional
Staphylococcus aureus [9] = test: Antibacterial activity against methicillin-resistant Staphylococcus aureus; assay type: functional
Staphylococcus aureus [10] = test: Antibacterial activity against vancomycin-resistant Staphylococcus aureus 20623; assay type: functional
Staphylococcus aureus [11] = test: Antibacterial activity against methicillin-resistant Staphylococcus aureus 20628; assay type: functional
Staphylococcus aureus [12] = test: Antibacterial activity against methicillin-resistant Staphylococcus aureus 20654; assay type: functional
Staphylococcus aureus [13] = test: Antibacterial activity against methicillin-resistant Staphylococcus aureus 20631; assay type: functional
Staphylococcus aureus [14] = test: Antibacterial activity against methicillin-resistant Staphylococcus aureus 20630; assay type: functional
Staphylococcus aureus [15] = test: Antibacterial activity against methicillin-resistant Staphylococcus aureus 20652 at 50 ug/ml; assay type: functional, organism-based
Staphylococcus aureus [16] = test: Antibacterial activity against methicillin-resistant Staphylococcus aureus 20636; assay type: functional
Staphylococcus aureus [17] = test: Antibacterial activity against vancomycin-resistant Staphylococcus aureus 20624 at 256 ug/ml; assay type: functional, organism-based
Staphylococcus aureus [18] = test: Antibacterial activity against vancomycin-resistant Staphylococcus aureus 21083 at 256 ug/ml; assay type: functional, organism-based
Staphylococcus aureus [19] = test: Antibacterial activity against vancomycin-resistant Staphylococcus aureus 20623 at 256 ug/ml; assay type: functional, organism-based
Staphylococcus aureus [20] = test: microbe, parasite or virus in culture; conditions: 20652
Staphylococcus aureus [21] = test: Antibacterial activity against vancomycin-resistant Staphylococcus aureus 20622 at 256 ug/ml; assay type: functional, organism-based
Staphylococcus aureus [22] = test: Antibacterial activity against methicillin-resistant Staphylococcus aureus 20653 at 25 ug/ml; assay type: functional, organism-based
Staphylococcus aureus [23] = test: Antibacterial activity against methicillin-resistant Staphylococcus aureus 20628 at 25 ug/ml; assay type: functional, organism-based
Staphylococcus aureus [24] = test: Antibacterial activity against methicillin-resistant Staphylococcus aureus 20652 at 25 ug/ml; assay type: functional, organism-based
Staphylococcus aureus [25] = test: Antibacterial activity against methicillin-resistant Staphylococcus aureus 20654 at 25 ug/ml; assay type: functional, organism-based
Staphylococcus aureus [26] = test: Antibacterial activity against methicillin-resistant Staphylococcus aureus 20633 at 25 ug/ml; assay type: functional, organism-based
Staphylococcus aureus [27] = test: Antibacterial activity against methicillin-resistant Staphylococcus aureus 20636 at 25 ug/ml; assay type: functional, organism-based
Staphylococcus aureus [28] = test: Antibacterial activity against methicillin-resistant Staphylococcus aureus 20631 at 256 ug/ml; assay type: functional, organism-based
Staphylococcus aureus [29] = test: Antibacterial activity against methicillin-resistant Staphylococcus aureus 20636 at 256 ug/ml; assay type: functional, organism-based
Staphylococcus aureus [30] = test: Antibacterial activity against methicillin-resistant Staphylococcus aureus 20635 at 256 ug/ml; assay type: functional, organism-based
Staphylococcus aureus [31] = test: Antibacterial activity against methicillin-resistant Staphylococcus aureus 20628 at 256 ug/ml; assay type: functional, organism-based
Staphylococcus aureus [32] = test: Antibacterial activity against methicillin-resistant Staphylococcus aureus 20630 at 256 ug/ml; assay type: functional, organism-based
Staphylococcus aureus [33] = test: Antibacterial activity against methicillin-resistant Staphylococcus aureus 20652 at 256 ug/ml; assay type: functional, organism-based
Staphylococcus aureus [34] = test: Antibacterial activity against methicillin-resistant Staphylococcus aureus 20633 at 256 ug/ml; assay type: functional, organism-based
Staphylococcus aureus [35] = test: Antibacterial activity against methicillin-resistant Staphylococcus aureus at 256 ug/ml; assay type: functional, organism-based
Staphylococcus aureus [36] = test: Antibacterial activity against methicillin-resistant Staphylococcus aureus 20654 at 256 ug/ml; assay type: functional, organism-based
Staphylococcus aureus [37] = test: Antibacterial activity against methicillin-resistant Staphylococcus aureus 20653 at 256 ug/ml; assay type: functional, organism-based
Staphylococcus aureus [38] = test: Antibacterial activity against methicillin-resistant Staphylococcus aureus 20632 at 256 ug/ml; assay type: functional, organism-based
Staphylococcus aureus [39] = test: Antibacterial activity against methicillin-resistant Staphylococcus aureus 20652 at 100 ug/ml; assay type: functional, organism-based

SMILES | MIC (Staphylococcus aureus [1]) [µg/mL] | MIC (Staphylococcus aureus [2]) [µg/mL] | MIC (Staphylococcus aureus [3]) [µg/mL] | MIC (Staphylococcus aureus [4]) [µg/mL] | MIC (Staphylococcus aureus [5]) [µg/mL] | IC50 [6] [µg/mL] | MIC (Staphylococcus aureus [7]) [µg/mL] | MIC (Staphylococcus aureus [8]) [µg/mL] | MIC (Staphylococcus aureus [9]) [µg/mL] | MIC (Staphylococcus aureus [10]) [µg/mL] | MIC (Staphylococcus aureus [11]) [µg/mL] | MIC (Staphylococcus aureus [12]) [µg/mL] | MIC (Staphylococcus aureus [13]) [µg/mL] | MIC (Staphylococcus aureus [14]) [µg/mL] | Activity (Staphylococcus aureus [15]) | MIC (Staphylococcus aureus [16]) [µg/mL] | Activity (Staphylococcus aureus [17]) | Activity (Staphylococcus aureus [18]) | Activity (Staphylococcus aureus [19]) | Activity (Staphylococcus aureus [21]) | other results
NCCCCNC(=O)CCc1ccc(O)c(O)c1 | 12.5 (≈ 49.5 µM) | 25 (≈ 99.1 µM) | 100 (≈ 396 µM) | 25 (≈ 99.1 µM) | 25 (≈ 99.1 µM) | > 100 | 25 (≈ 99.1 µM) | 25 (≈ 99.1 µM) | 25 (≈ 99.1 µM) | 25 (≈ 99.1 µM) | 50 (≈ 198 µM) | 25 (≈ 99.1 µM) | 25 (≈ 99.1 µM) | 50 (≈ 198 µM) | inactive | 25 (≈ 99.1 µM) | – | – | – | – | –
CN[C@H](CC(C)C)C(=O)N[C@H]1C(=O)N[C@@H](CC(N)=O)C(=O)N[C@H]2C(=O)N[C@H]3C(=O)N[C@H](C(=O)N[C@H](C(=O)O)c4cc(O)cc(O)c4-c4cc3ccc4O)[C@H](O)c3ccc(c(Cl)c3)Oc3cc2cc(c3O[C@@H]2O[C@H](CO)[C@@H](O)[C@H](O)[C@H]2O[C@H]2C[C@](C)(N)[C@H](O)[C@H](C)O2)Oc2ccc(cc2Cl)[C@H]1O [VANCOMYCIN] | 8 (≈ 5.52 µM) | – | – | 3 (≈ 2.07 µM) | – | – | – | – | – | – | – | 1.5 (≈ 1.04 µM) | 48 (≈ 33.1 µM) | 1.5 (≈ 1.04 µM) | – | 1.5 (≈ 1.04 µM) | inactive | inactive | inactive | inactive | MIC (Staphylococcus aureus [20]): 0.25 µg/mL (≈ 0.173 µM)
NCCCCCNC(=O)CCc1ccc(O)c(O)c1 | 25 (≈ 93.9 µM) | – | 50 (≈ 188 µM) | 50 (≈ 188 µM) | 50 (≈ 188 µM) | > 100 | 25 (≈ 93.9 µM) | – | 50 (≈ 188 µM) | 25 (≈ 93.9 µM) | – | – | 50 (≈ 188 µM) | 50 (≈ 188 µM) | – | – | – | – | – | – | Activity (Staphylococcus aureus [22]): inactive; Activity (Staphylococcus aureus [23]): inactive; Activity (Staphylococcus aureus [24]): inactive; Activity (Staphylococcus aureus [25]): inactive; Activity (Staphylococcus aureus [26]): inactive; Activity (Staphylococcus aureus [27]): inactive
NCCCNC(=O)CCc1ccc(O)c(O)c1 | 25 (≈ 105 µM) | 25 (≈ 105 µM) | 100 (≈ 420 µM) | 50 (≈ 210 µM) | 50 (≈ 210 µM) | > 100 | 25 (≈ 105 µM) | 50 (≈ 210 µM) | 50 (≈ 210 µM) | 50 (≈ 210 µM) | 50 (≈ 210 µM) | 50 (≈ 210 µM) | 50 (≈ 210 µM) | 50 (≈ 210 µM) | inactive | 25 (≈ 105 µM) | – | – | – | – | –
Cc1onc(-c2ccccc2)c1C(=O)N[C@@H]1C(=O)N2[C@@H]1SC(C)(C)[C@@H]2C(=O)O | – | – | – | – | – | – | – | – | – | – | – | – | – | – | – | – | inactive | inactive | inactive | inactive | Activity (Staphylococcus aureus [28]): inactive; Activity (Staphylococcus aureus [29]): inactive; Activity (Staphylococcus aureus [30]): inactive; Activity (Staphylococcus aureus [31]): inactive; Activity (Staphylococcus aureus [32]): inactive; Activity (Staphylococcus aureus [33]): inactive; Activity (Staphylococcus aureus [34]): inactive; Activity (Staphylococcus aureus [35]): inactive; Activity (Staphylococcus aureus [36]): inactive; Activity (Staphylococcus aureus [37]): inactive; Activity (Staphylococcus aureus [38]): inactive
NCCCCCCNC(=O)/C=C/c1ccc(O)c(O)c1 | 25 (≈ 89.8 µM) | 25 (≈ 89.8 µM) | 100 (≈ 359 µM) | 50 (≈ 180 µM) | 50 (≈ 180 µM) | > 100 | 25 (≈ 89.8 µM) | 50 (≈ 180 µM) | 100 (≈ 359 µM) | 50 (≈ 180 µM) | 50 (≈ 180 µM) | 25 (≈ 89.8 µM) | 50 (≈ 180 µM) | 50 (≈ 180 µM) | – | 50 (≈ 180 µM) | – | – | – | – | Activity (Staphylococcus aureus [39]): inactive
